Results: patent publication US20250382287A1, “PHARMACEUTICALLY ACCEPTABLE SALT AND CRYSTAL FORM OF NITROGEN-CONTAINING BRIDGE HETEROCYCLIC DERIVATIVE, AND METHOD FOR PREPARING SAME” (JIANGSU HENGRUI PHARMACEUTICALS CO., LTD., priority 2022, published 2025)

Columns and labels:
[1] = DVS (dynamic vapor sorption) hygroscopicity testing; assay type: physicochemical; conditions: for hygroscopic weight gain under normal storage conditions / hygroscopic weight gain under accelerated experimental conditions / hygroscopic weight gain under extreme conditions: DVS; for hygroscopic weight gain under normal storage conditions: 25° C. and 60% RH; for hygroscopic weight gain under accelerated experimental conditions: 70% RH; for hygroscopic weight gain under extreme conditions: 90% RH; for crystal form re-identification after DVS testing: XRPD after DVS
Procedure: DVS refers to dynamic vapor sorption: Surface Measurement Systems instrinsic was adopted; the humidity started at 50%, the humidity range investigated was 0%-95%, and the humidity was increased in increments of 10%; the criterion was that each gradient mass change dM/dT is less than 0.002%, TMAX 360 min, two cycles.

[2] = Long-term/accelerated stability (sealed, 25° C./60% RH and 40° C./75% RH)
[3] = Influencing factor stability (open flasks, light, high temperature, high humidity, 30 days)
[4] = 25° C., 60% RH, sealed, 1 month
[5] = 25° C., 60% RH, sealed, 2 months
[6] = 25° C., 60% RH, sealed, 3 months
[7] = 25° C., 60% RH, sealed, 6 months
[8] = 25° C./60% RH and 40° C./75% RH, 6 months
[9] = 40° C., 75% RH, sealed, 1 month
[10] = 40° C., 75% RH, sealed, 2 months
[11] = 40° C., 75% RH, sealed, 3 months
[12] = 40° C., 75% RH, sealed, 6 months
[13] = Light exposure (4500 Lux), 5 days, open flask
[14] = Light exposure (4500 Lux), 10 days, open flask
[15] = Light exposure (4500 Lux), 30 days, open flask
[16] = light exposure (4500 Lux), 40° C. and 60° C., high humidity RH 75% and 92.5%, 30 days
[17] = Light exposure (4500 Lux), 12 days, open flask

CCO[C@H]1C[C@H]2CC[C@@](c3ccc(C(=O)O)cc3)(C1)N2Cc1c(OC)cc(C)c2[nH]ccc12.O=P(O)(O)O [crystal form III of the phosphate, 4-((1S,3S,5R)-3-ethoxy-8-((5-methoxy-7-methyl-1H-indol-4-yl)methyl)-8-azabicyclo[3.2.1]octan-1-yl)benzoic acid-phosphate]
did not change: crystal form re-identification after DVS testing [1]
about 4.7700%: hygroscopic weight gain under normal storage conditions [1]
about 7.20%: hygroscopic weight gain under extreme conditions [1]
about 5.440%: hygroscopic weight gain under accelerated experimental conditions [1]

CCO[C@H]1C[C@H]2CC[C@@](c3ccc(C(=O)O)cc3)(C1)N2Cc1c(OC)cc(C)c2[nH]ccc12.O=C(O)/C=C/C(=O)O [crystal form I of the fumarate, 4-((1S,3S,5R)-3-ethoxy-8-((5-methoxy-7-methyl-1H-indol-4-yl)methyl)-8-azabicyclo[3.2.1]octan-1-yl)benzoic acid-fumarate]
No change: Salt form [2, 4] | Salt form [2, 5] | Salt form [2, 6] | Salt form [2, 7] | Salt form [2, 9] | Salt form [2, 10] | Salt form [2, 11] | Salt form [2, 12] | Salt form ([3]; 40° C., 5 days, open flask) | Salt form ([3]; 40° C., 10 days, open flask) | Salt form ([3]; 40° C., 30 days, open flask) | Salt form ([3]; 60° C., 5 days, open flask) | Salt form ([3]; 60° C., 10 days, open flask) | Salt form ([3]; 60° C., 30 days, open flask) | Salt form ([3]; 75% RH, 5 days, open flask) | Salt form ([3]; 75% RH, 10 days, open flask) | Salt form ([3]; 75% RH, 30 days, open flask) | Salt form ([3]; 92.5% RH, 5 days, open flask) | Salt form ([3]; 92.5% RH, 10 days, open flask) | Salt form ([3]; 92.5% RH, 30 days, open flask) | Salt form [3, 13] | Salt form [3, 14] | Salt form [3, 15]
99.9%: Purity % [2, 4] | Purity % [2, 7] | Purity % [2, 9] | Purity % [2, 10] | Purity % [2, 11] | Purity % ([3]; 75% RH, 10 days, open flask) | Purity % ([3]; 92.5% RH, 5 days, open flask) | Purity % ([3]; 92.5% RH, 10 days, open flask) | Purity % ([3]; 92.5% RH, 30 days, open flask) | Purity % [3, 14]
about 0.60%: hygroscopic weight gain under accelerated experimental conditions [1]
White solid: Color and state ([3]; 40° C., 5 days, open flask) | Color and state ([3]; 40° C., 10 days, open flask) | Color and state ([3]; 40° C., 30 days, open flask) | Color and state ([3]; 60° C., 5 days, open flask) | Color and state ([3]; 60° C., 10 days, open flask) | Color and state ([3]; 60° C., 30 days, open flask) | Color and state ([3]; 75% RH, 5 days, open flask) | Color and state ([3]; 75% RH, 10 days, open flask) | Color and state ([3]; 75% RH, 30 days, open flask) | Color and state ([3]; 92.5% RH, 5 days, open flask) | Color and state ([3]; 92.5% RH, 10 days, open flask) | Color and state ([3]; 92.5% RH, 30 days, open flask) | Color and state ([3]; Initial, 0 days) | Color and state [3, 13] | Color and state [3, 14] | Color and state [3, 15]
99.7%: Purity % ([3]; 40° C., 5 days, open flask) | Purity % ([3]; 60° C., 10 days, open flask)
good: chemical stability [2, 8] | physical stability [2, 8] | chemical stability [3, 16] | physical stability [3, 16]
99.3%: Purity % ([3]; 40° C., 30 days, open flask)
Crystal form I: Salt form ([2]; Initial) | Salt form ([3]; Initial, 0 days)
100.0%: Purity % [2, 5] | Purity % [2, 6] | Purity % ([2]; Initial) | Purity % ([3]; 75% RH, 5 days, open flask) | Purity % ([3]; 75% RH, 30 days, open flask) | Purity % ([3]; Initial, 0 days) | Purity % [3, 13]
99.6%: Purity % ([3]; 40° C., 10 days, open flask)
99.8%: Purity % [2, 12] | Purity % ([3]; 60° C., 5 days, open flask)
about 0.82%: hygroscopic weight gain under extreme conditions [1]
did not change: crystal form re-identification after DVS testing [1]
about 0.51%: hygroscopic weight gain under normal storage conditions [1]
99.5%: Purity % ([3]; 60° C., 30 days, open flask) | Purity % [3, 15]

CCO[C@H]1C[C@H]2CC[C@@](c3ccc(C(=O)O)cc3)(C1)N2Cc1c(OC)cc(C)c2[nH]ccc12.Cl [crystal form V of the hydrochloride, 4-((1S,3S,5R)-3-ethoxy-8-((5-methoxy-7-methyl-1H-indol-4-yl)methyl)-8-azabicyclo[3.2.1]octan-1-yl)benzoic acid-hydrochloride]
about 7.28%: hygroscopic weight gain under accelerated experimental conditions [1]
about 8.32%: hygroscopic weight gain under extreme conditions [1]
did not change: crystal form re-identification after DVS testing [1]
about 6.36%: hygroscopic weight gain under normal storage conditions [1]

CCO[C@H]1C[C@H]2CC[C@@](c3ccc(C(=O)O)cc3)(C1)N2Cc1c(OC)cc(C)c2[nH]ccc12.O=P(O)(O)O [crystal form II of the phosphate, 4-((1S,3S,5R)-3-ethoxy-8-((5-methoxy-7-methyl-1H-indol-4-yl)methyl)-8-azabicyclo[3.2.1]octan-1-yl)benzoic acid-phosphate]
No change: Salt form ([3]; 40° C., 5 days, open flask) | Salt form ([3]; 40° C., 12 days, open flask) | Salt form ([3]; 40° C., 30 days, open flask) | Salt form ([3]; 60° C., 5 days, open flask) | Salt form ([3]; 60° C., 12 days, open flask) | Salt form ([3]; 60° C., 30 days, open flask) | Salt form ([3]; 75% RH, 5 days, open flask) | Salt form ([3]; 75% RH, 12 days, open flask) | Salt form ([3]; 75% RH, 30 days, open flask) | Salt form ([3]; 92.5% RH, 5 days, open flask) | Salt form [3, 13] | Salt form [3, 17] | Salt form [3, 15]
White solid: Color and state ([3]; 40° C., 5 days, open flask) | Color and state ([3]; 40° C., 12 days, open flask) | Color and state ([3]; 40° C., 30 days, open flask) | Color and state ([3]; 60° C., 5 days, open flask) | Color and state ([3]; 60° C., 12 days, open flask) | Color and state ([3]; 60° C., 30 days, open flask) | Color and state ([3]; 75% RH, 5 days, open flask) | Color and state ([3]; 75% RH, 12 days, open flask) | Color and state ([3]; 75% RH, 30 days, open flask) | Color and state ([3]; 92.5% RH, 5 days, open flask) | Color and state ([3]; 92.5% RH, 12 days, open flask) | Color and state ([3]; 92.5% RH, 30 days, open flask) | Color and state ([3]; Initial, 0 days) | Color and state [3, 13] | Color and state [3, 17] | Color and state [3, 15]
99.9%: Purity % ([2]; Initial)
97.7%: Purity % [2, 10]
98.7%: Purity % [2, 9]
good: long-term chemical stability ([2]; long-term condition, 2 months) | chemical stability under high humidity conditions ([3]; high humidity conditions only, 30 days) | physical stability under high temperature, light exposure, and high humidity (75% RH) conditions ([3]; high temperature, light exposure, high humidity 75% RH only)
99.6%: Purity % [2, 4]
relatively good: physical stability ([2]; 25° C./60% RH and 40° C./75% RH, 2 months)
Changed: Salt form ([3]; 92.5% RH, 12 days, open flask) | Salt form ([3]; 92.5% RH, 30 days, open flask)
Crystal form II: Salt form ([3]; Initial, 0 days)
99.4%: Purity % [2, 5]

CCO[C@H]1C[C@H]2CC[C@@](c3ccc(C(=O)O)cc3)(C1)N2Cc1c(OC)cc(C)c2[nH]ccc12.Cl [crystal form VI of the hydrochloride, 4-((1S,3S,5R)-3-ethoxy-8-((5-methoxy-7-methyl-1H-indol-4-yl)methyl)-8-azabicyclo[3.2.1]octan-1-yl)benzoic acid-hydrochloride]
about 5.73%: hygroscopic weight gain under extreme conditions [1]
about 3.69%: hygroscopic weight gain under normal storage conditions [1]
about 4.12%: hygroscopic weight gain under accelerated experimental conditions [1]
did not change: crystal form re-identification after DVS testing [1]
